From US7182950B2, “Nano-sized self-assembled liquid dilutable vehicles” (Nutralease Ltd., priority 2002, dated 2007)
Values belong to the compound of their own block, whether it stands above or below them.

What was measured:
[1] = type: physicochemical
Source text: The invention will now be described with reference to some non-limiting specific embodiments. The invention will first be illustrated in reference to the attached drawings to be followed by a more detailed description below. Turning to FIG. 1, there are shown two different phase diagrams (1A and 1B) of ternary systems comprising oil/water/surfactant according to the prior art. Such a ternary system forms microemulsions. As a function of the relative amounts of each of the three components one may achieve a two-phase or a mono-phase liquid concentrate comprising of the microemulsion where the boundaries of the stable phases depend on the relative concentration of each component. […] A two-phase region at equilibrium, at 35, prevails at all other concentrations of the ternary system. […] A one phase stable isotropic region exists at 65. Turning to FIG. 2, a general ternary phase diagram 80 describing the nano-sized self-assembled structured concentrates of the present invention, A rather small two-phase concentrate region 90 and a large stable one-phase at 100 region are present. A micellar concentrate of the nano-sized self-assembled structures exists at 110, i.e. there is no aqueous phase. Adding a small amount of aqueous phase results in an oil continuous phase, which is actually water in oil (W/O) region at 120A, 120B and 120C along the tree dilution lines. Addition of an increasing amount of aqueous solution results in a bi-continuous region at 130A, 130B and 130C along the three dilution lines. At the point where the amount of aqueous solution is greater than that of the oil phase there exists an aqueous continuous phase, which is actually an oil in water (O/W) region generally at 140A, 140B and 140C along the three dilution lines. Direct micelles exist only at the extreme at 150. It should be noted that along each concentration line as the concentration of the surfactant increases, the oil continuous phase may decrease is size while the bicontinuous and water continuous phases may increase in size. Turning to FIG. 3, a ternary phase diagram 170 describing another nanosized-structured concentrate of the present invention is shown. The oil phase, which is the desired solvent for achieving a single-phase system, is α-tocopherol acetate. The aqueous system comprises of water and a co-solvent—propylene glycol. As shown, a major portion of the four-component system is in one stable region 180, while only a minor portion 190 is a two-phase system. Phase diagrams, solubilization factors and efficiency of solubilization for lycopene, phytosterol and lutein in ternary systems according to lo the present invention are given in FIGS. 4–6. […] It should be noted that the ratio between each of the components of the oil phase to the surfactant is 1:3. […] As shown, upon further dilution with water, tie solubilization of lycopene drops over the dilution factor. In case the system is diluted from 67% water to 80% water, the dilution factor (from inversion) is 80/67=1.19. The solubilization on the other hand decreases by a factor of 450/312.5=1.44. This indicates structural change in the nano-sized self-assembled concentrates. Turning to FIG. 4C, the efficiency of the solubilization in the described system is represented (α). The efficiency factor, α, is defined as lycopene/oil(wt/wt)X 100. As shown, the maximum solubilization on an oil base is 0.8 wt %. […] Tuming to FIG. 4D, there is shown the solubilization capacity of the lycopene as a function of the nature of the surfactant system. As shown, for the case where the surfactant is Tween 60, the efficiency factor (solubilization based on the oil phase) is 0.8 wt %. However, this value is increased to 1.05, 1.1, 1.1 and 1.16 (wt %) for the cases where the surfactant is ethoxylated monoglycerides (EM), triglycerol monooleate (TM), sugar ester (SE), and a mixture of SE+EM, respectively. It should be noted that such efficiency factors are equivalent to a solubilization factor of up to 25 fold. […]

[2] = Solubility of lycopene in oil (oil dissolution capacity); type: physicochemical
Source text: The invention will now be described with reference to some non-limiting specific embodiments. The invention will first be illustrated in reference to the attached drawings to be followed by a more detailed description below. Turning to FIG. 1, there are shown two different phase diagrams (1A and 1B) of ternary systems comprising oil/water/surfactant according to the prior art. Such a ternary system forms microemulsions. As a function of the relative amounts of each of the three components one may achieve a two-phase or a mono-phase liquid concentrate comprising of the microemulsion where the boundaries of the stable phases depend on the relative concentration of each component. […] A two-phase region at equilibrium, at 35, prevails at all other concentrations of the ternary system. […] A one phase stable isotropic region exists at 65. Turning to FIG. 2, a general ternary phase diagram 80 describing the nano-sized self-assembled structured concentrates of the present invention, A rather small two-phase concentrate region 90 and a large stable one-phase at 100 region are present. A micellar concentrate of the nano-sized self-assembled structures exists at 110, i.e. there is no aqueous phase. Adding a small amount of aqueous phase results in an oil continuous phase, which is actually water in oil (W/O) region at 120A, 120B and 120C along the tree dilution lines. […]

Compound: CC1=C[C@H](O)CC(C)(C)[C@H]1/C=C/C(C)=C/C=C/C(C)=C/C=C/C=C(C)/C=C/C=C(C)/C=C/C1=C(C)C[C@@H](O)CC1(C)C [free lutein]
Concentration (%) of free lutein [1]: 0.006%

Compound: lutein ester
Concentration (%) of lutein ester [1]: 0.047%

Now from value to compound:

Concentration (%) of phytosterol [1]: 1.0% | Efficiency factor α, phytosterol/oil (wt/wt) x 100, maximum solubilization on an oil base [1]: 16.7 wt % | Increase of solubilization capacity over aqueous or oil phase alone or with surfactant [1]: 7-20 fold | Maximum solubilization [1]: 1.65 % (wt) | Maximum solubilization in 1 Kg of nano-sized self-assembled structured concentrate [1]: 165 mg | Solubilization decrease factor on dilution [1]: 3.6 | Solubilization factors [1]: 6, 7 | Solubilization in 1 Kg of concentrate after dilution [1]: 45 mg
Compound: phytosterol

Solubility of lycopene in oil [2]: ca. 0.045 wt % | Concentration (%) of lycopene [1]: 0.02% | Efficiency factor α, lycopene/oil (wt/wt) x 100, maximum solubilization on an oil base [1]: 0.8 wt % | Factor of decrease of solubilization on dilution [1]: 1.44 | Increase of solubilization capacity over aqueous or oil phase alone or with surfactant [1]: 7-20 fold | Maximum solubility (solubility capacity) in 1 Kg of nano-sized self-assembled structured concentrate [1]: 450 mg | Maximum solubilization [1]: 0.45 % (wt) | Solubility capacity in 1 Kg of concentrate after dilution [1]: 312.5 mg | Solubilization factor [1]: up to 25 fold | Solubilization relative to the oil dissolution capacity [1]: up to 17.7 fold
Compound: CC(C)=CCC/C(C)=C/C=C/C(C)=C/C=C/C(C)=C/C=C/C=C(C)/C=C/C=C(C)/C=C/C=C(\C)CCC=C(C)C [lycopene]

Aqueous solution concentration at which maximum solubilization occurs (bi continuous region) [1]: 40 to 60% | Increase of solubilization capacity over aqueous or oil phase alone or with surfactant [1]: 7-20 fold | Solubilization in the oil in water (O/W) region [1]: limited solubilization
Compound: CC1=C[C@H](O)CC(C)(C)[C@H]1/C=C/C(C)=C/C=C/C(C)=C/C=C/C=C(C)/C=C/C=C(C)/C=C/C1=C(C)C[C@@H](O)CC1(C)C [lutein]
